The target of one assay is T1, human μ opioid receptor (Homo sapiens, UniProt P35372).
T1 construct: expressed in transfected cells
Briefly: Calcium mobilization assay, CHO cells with μ receptor and chimeric G protein. The format is cell-based. The conditions noted are these: CHO cells coexpressing human μ receptor and Gαqi5; 5 experiments in duplicate; read-out: calcium mobilization at μ receptor, concentration up to which inactive. As for the experimental part: (§1) Chinese hamster ovary (CHO) cells stably coexpressing the human NOP, μ, or κ opioid receptors and the Gαqi5 protein or the human δ and the GαqG66Di5 protein were used in this assay. , Cells were cultured in DMEM/F-12 (1:1) medium supplemented with 10% FBS, 2 mM L-glutamine, […], 100 IU/mL penicillin, and 100 IU/mL streptomycin. Cells were maintained at 37 °C in a humidified atmosphere with 5% CO2 and were seeded at 50 000 cells/well into 96-well black, clear-bottom plates 24 h before test. Loading for 45 min with a solution consisting of HBSS supplemented with 2.5 mM probenecid, 3 μM Fluo-4 AM, and 0.01% pluronic acid ensures the calcium-sensitive dye (Fluo-4) reaches the needed concentration inside the cell, while the exchange of the solution with 100 μL/well of buffer consisting of HBSS with 20 mM HEPES, 2.5 mM probenecid, and 500 μM Brilliant Black allows for fluorescence background to decrease. Serial dilutions of ligands were prepared in HBSS buffer with 20 mM HEPES and 0.02% bovine serum albumin (BSA) to minimize the ligands’ stickiness to plasticware. The automated microplate reader FlexStation II (Molecular Devices, CA, US) was employed at 37 °C to detect changes in fluorescence intensity. The effects of all compounds were expressed as the maximum change in percentage over the baseline fluorescence measured in samples treated with vehicles. […]
(Calcium assays in cells follow changes in intracellular calcium, usually with a dye or a luminescent sensor.)

The next assay addresses T2, human δ opioid receptor (Homo sapiens, UniProt P41143).
T2 construct: expressed in transfected cells
In words: Calcium mobilization assay, CHO cells with δ receptor and chimeric G protein. It is filed as cell-based. The conditions noted are these: CHO cells coexpressing human δ receptor and GαqG66Di5; 5 experiments in duplicate; read-out: calcium mobilization at δ receptor, concentration up to which inactive. As for the experimental part: as §1

For the next assay, the target named is T3, human κ opioid receptor (Homo sapiens, UniProt P41145).
T3 construct: expressed in transfected cells
T3 sequence (P41145 whole entry): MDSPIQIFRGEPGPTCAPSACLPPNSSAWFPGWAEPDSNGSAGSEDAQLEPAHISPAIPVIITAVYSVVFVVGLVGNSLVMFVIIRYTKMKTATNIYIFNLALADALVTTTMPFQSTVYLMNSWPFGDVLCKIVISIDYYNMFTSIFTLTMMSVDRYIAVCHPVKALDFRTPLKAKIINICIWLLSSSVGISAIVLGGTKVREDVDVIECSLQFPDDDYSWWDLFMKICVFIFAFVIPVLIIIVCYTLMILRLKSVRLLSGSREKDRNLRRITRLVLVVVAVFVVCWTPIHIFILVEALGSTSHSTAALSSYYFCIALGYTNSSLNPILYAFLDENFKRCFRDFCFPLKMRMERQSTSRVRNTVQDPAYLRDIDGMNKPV
In words: Calcium mobilization assay, CHO cells with κ receptor and chimeric G protein. It is filed as cell-based. The conditions noted are these: CHO cells coexpressing human κ receptor and Gαqi5; 5 experiments in duplicate; read-out: calcium mobilization at κ receptor, concentration up to which inactive. As for the experimental part: as §1

The subject of assay [1] is loss of the righting reflex (RR) in NOP(−/−) mice. Briefly: Loss of the righting reflex assay in NOP(−/−) mice. The format is in vivo, mouse. Particulars: 10 nmol, icv; N = 7–9 per group. As for the experimental part: All of the experimental procedures adopted in the in vivo studies comply with the European Directive 2010/63/EU on protecting animals used for scientific purposes and Italian Legislative Decree no. 26 of March 4, 2014. These experiments were approved by the Animal Welfare Body of the University of Ferrara and by the Ministry of Health (authorization number 677/2024-PR). In vivo studies have been reported following ARRIVE guidelines. All experiments were conducted with mice bred and housed in the University of Ferrara’s animal facility under specific pathogen-free conditions. All mice were housed in cages with individual ventilation, with a constant temperature of 21 °C, 60% humidity, and a 12 h light/dark cycle. Food and water were provided ad libitum. […] When the animals lost RR, they were placed in a plastic cage, and the time was recorded by an expert observer, blind to drug treatments and/or genotype. […]
Concentration-response curves to agonists were analyzed by a four-parameter logistic nonlinear regression model: Effect = baseline + (E max – baseline)/(1 + 10^((logEC50–log[ligand])slope)). […] Experimental data were expressed as mean ± sem of at least 5 experiments. Potency values were expressed as the mean and CL95%. In vitro E max values were analyzed by one-way ANOVA, while in vivo latency data were evaluated by one-way ANOVA followed by Dunnett’s post hoc test. […]

The target of another assay is human NOP (Homo sapiens, UniProt P41146). In words: Calcium mobilization assay, CHO cells with NOP receptor and chimeric G protein. The format is cell-based. Details: expressed in transfected cells. As for the experimental part:
Chinese hamster ovary (CHO) cells stably coexpressing the human NOP, μ, or κ opioid receptors and the Gαqi5 protein or the human δ and the GαqG66Di5 protein were used in this assay. , Cells were cultured in DMEM/F-12 (1:1) medium supplemented with 10% FBS, 2 mM L-glutamine, […], 100 IU/mL penicillin, and 100 IU/mL streptomycin. Cells were maintained at 37 °C in a humidified atmosphere with 5% CO2 and were seeded at 50 000 cells/well into 96-well black, clear-bottom plates 24 h before test. Loading for 45 min with a solution consisting of HBSS supplemented with 2.5 mM probenecid, 3 μM Fluo-4 AM, and 0.01% pluronic acid ensures the calcium-sensitive dye (Fluo-4) reaches the needed concentration inside the cell, while the exchange of the solution with 100 μL/well of buffer consisting of HBSS with 20 mM HEPES, 2.5 mM probenecid, and 500 μM Brilliant Black allows for fluorescence background to decrease. Serial dilutions of ligands were prepared in HBSS buffer with 20 mM HEPES and 0.02% bovine serum albumin (BSA) to minimize the ligands’ stickiness to plasticware. The automated microplate reader FlexStation II (Molecular Devices, CA, US) was employed at 37 °C to detect changes in fluorescence intensity. The effects of all compounds were expressed as the maximum change in percentage over the baseline fluorescence measured in samples treated with vehicles.
Concentration-response curves to agonists were analyzed by a four-parameter logistic nonlinear regression model: Effect = baseline + (E max – baseline)/(1 + 10^((logEC50–log[ligand])slope)). […] Experimental data were expressed as mean ± sem of at least 5 experiments. Potency values were expressed as the mean and CL95%. In vitro E max values were analyzed by one-way ANOVA, while in vivo latency data were evaluated by one-way ANOVA followed by Dunnett’s post hoc test. The proportion of mice losing the righting reflex was compared by Fisher’s exact test performed on raw data. GraphPad Prism 10.0 software was used for all of the analyses. The terminology employed is consistent with the International Union of Basic and Clinical Pharmacology (IUPHAR) recommendations. ,

pEC50: −log10 of the molar value. Several values for one entry are separate records, joined by “and”; a condition that tells them apart may be missing. Identical values can stand only once. Bridge positions count the residues as written; N and C are the ends. Peptide text beside a SMILES is read from it. I, II: the chains in the order shown.

human NOP, sequence (P41146 whole entry): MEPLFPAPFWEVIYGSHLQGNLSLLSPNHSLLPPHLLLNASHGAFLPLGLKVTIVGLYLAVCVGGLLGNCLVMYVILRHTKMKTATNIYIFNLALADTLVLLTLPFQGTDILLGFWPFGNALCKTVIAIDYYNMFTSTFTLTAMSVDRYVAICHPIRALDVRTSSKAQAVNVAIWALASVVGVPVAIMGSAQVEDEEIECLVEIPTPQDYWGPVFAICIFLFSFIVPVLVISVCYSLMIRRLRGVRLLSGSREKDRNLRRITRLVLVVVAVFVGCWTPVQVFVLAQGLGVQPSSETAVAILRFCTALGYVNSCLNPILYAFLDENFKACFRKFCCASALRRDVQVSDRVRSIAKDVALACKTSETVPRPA
T1 sequence (P35372 whole entry): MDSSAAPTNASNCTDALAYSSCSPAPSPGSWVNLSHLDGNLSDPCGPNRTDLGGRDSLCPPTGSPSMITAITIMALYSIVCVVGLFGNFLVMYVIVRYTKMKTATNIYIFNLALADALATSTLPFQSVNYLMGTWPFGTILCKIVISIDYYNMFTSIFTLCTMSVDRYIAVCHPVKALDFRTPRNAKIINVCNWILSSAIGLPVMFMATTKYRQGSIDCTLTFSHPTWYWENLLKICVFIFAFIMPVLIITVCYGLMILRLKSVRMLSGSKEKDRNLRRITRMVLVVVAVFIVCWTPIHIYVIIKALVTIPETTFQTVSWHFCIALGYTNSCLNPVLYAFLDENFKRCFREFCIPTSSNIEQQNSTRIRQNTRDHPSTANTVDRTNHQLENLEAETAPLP
T2 sequence (P41143 whole entry): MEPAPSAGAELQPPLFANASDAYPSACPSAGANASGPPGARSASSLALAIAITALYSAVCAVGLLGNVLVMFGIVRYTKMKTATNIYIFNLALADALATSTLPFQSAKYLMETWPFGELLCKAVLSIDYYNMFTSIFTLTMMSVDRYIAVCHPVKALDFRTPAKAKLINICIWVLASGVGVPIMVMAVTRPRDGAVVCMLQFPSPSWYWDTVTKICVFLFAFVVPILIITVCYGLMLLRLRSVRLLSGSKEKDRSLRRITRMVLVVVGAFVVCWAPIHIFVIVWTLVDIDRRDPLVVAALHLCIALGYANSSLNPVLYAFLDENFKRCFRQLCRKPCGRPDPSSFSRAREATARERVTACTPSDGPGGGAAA

With `C[C@H](NC(=O)CNC(=O)[C@@H](NC(=O)[C@H](Cc1ccccc1)NC(=O)CNC(=O)CNC(=O)[C@@H](N)Cc1ccccc1)[C@@H](C)O)C(=O)N[C@@H](CCCNC(=N)N)C(=O)N[C@@H](CCCCN)C(=O)N[C@@H](CO)C(=O)N[C@@H](C)C(=O)N[C@@H](CCCNC(=N)N)C(=O)N[C@@H](CCCCN)C(=O)N[C@@H](CSSC[C@H](NC(=O)[C@H](CCCCN)NC(=O)[C@H](CCCNC(=N)N)NC(=O)[C@H](C)NC(=O)[C@H](CO)NC(=O)[C@H](CCCCN)NC(=O)[C@H](CCCNC(=N)N)NC(=O)[C@H](C)NC(=O)CNC(=O)[C@@H](NC(=O)[C@H](Cc1ccccc1)NC(=O)CNC(=O)CNC(=O)[C@@H](N)Cc1ccccc1)[C@@H](C)O)C(=O)N[C@@H](C)C(=O)N[C@@H](CC(N)=O)C(=O)N[C@@H](CCC(N)=O)C(N)=O)C(=O)N[C@@H](C)C(=O)N[C@@H](CC(N)=O)C(=O)N[C@@H](CCC(N)=O)C(N)=O` [1h, [[Cys^14]N/OFQ-NH2]2] (I: H-FGGFTGARKSARKCANQ-NH2 / II: H-FGGFTGARKSARKCANQ-NH2; disulfide I:14-II:14; N-terminus assumed), the pEC50 on human μ opioid receptor, at human δ opioid receptor and at human κ opioid receptor was below 6.00 throughout. In addition, in assay [1], the “loss of the RR in NOP(−/−) mice (in words)” value was “completely inactive”. In addition, the EC50 on human NOP (CHO cells coexpressing human NOP and Gαqi5, Fluo-4, 37 °C, mean (CL95%), N = 5 experiments in duplicate, read-out: Ca^2+ mobilization pEC50 (CL95%) (converted)) is < 1 nM and 0.724 nM. Further, on human NOP (CHO cells coexpressing human NOP and Gαqi5, maximum change in percentage over baseline fluorescence, mean ± sem, N = 5 in duplicate), the “Ca^2+ mobilization E max ± sem” value is reported as 241 ± 38 % over the baseline. The “selectivity for the NOP over classical opioid receptors” value at human NOP (calcium mobilization, NOP vs μ, δ, κ receptors) is listed as “more than 1000 fold”.

Source of the values: article PMC12621184, “Synthesis and Pharmacological Characterization of Nociceptin/Orphanin FQ Dimeric Ligands” (Journal of Medicinal Chemistry, 2025).
